Test results as given in patent US20260137696A1, “Compositions Comprising an Inhibitor of Galectin-3” (University of Liverpool, priority 2023, published 2026).
Entries after “also recorded” stand apart in the source; their conditions may differ.

Tests used:
Galectin-3 = target: T1, Galectin-3 (Homo sapiens, UniProt P17931); test: Binding affinity to Galectin-3 by Tryptophan Fluorescence Spectroscopy (TFS); conditions: Galectin-3 10 μM, titration 0 to 224 μM
T1 construct: made in house; host or cells: E. coli
Description: (§1) The binding affinity of the compounds of Formula I and Formula II to Galectin-3 is assessed by Tryptophan Fluorescence Spectroscopy (TFS). The compounds of Formula I and Formula II bind to Galectin-3 with binding affinity (KD) at low μM;
as §1, with “FIG. 2A and FIG. 2B show analysis of the binding affinity of the compounds of Formula I and Formula II to Galectin-3. The binding” for “The binding”, “at low μM.” for “at low μM;”
The binding affinity of the inhibitors to Galectin-3 was determined by Intrinsic Tryptophan Fluorescence Spectroscopy (TFS) exactly as we described recently (Sindrewicz, P., et al., Intrinsic tryptophan fluorescence spectroscopy reliably determines galectin-ligand interactions. Sci Rep, 2019. 9(1): p. 11851, herein incorporated by reference). The Galectin-3 concentration used was 10 μM and the inhibitor titration concentrations were from 0 to 224 μM. DMSO/control buffer (PBS with 2 mM EDTA) titrations were performed and used for background subtraction.
The binding affinities of the compounds of Formula I and compounds of Formula II to Galectin-3 was determined by Tryptophan Fluorescence spectroscopy (TFS) [Sindrewicz, P., et al., Intrinsic tryptophan fluorescence spectroscopy reliably determines galectin-ligand interactions. Scientific Reports, 2019. 9(1): p. 11851, herein incorporated by reference] The Galectin-3 concentration used was 10 μM and the compounds of Formula I and compounds of Formula II titration concentrations were from 0 to 224 μM. DMSO/control buffer (PBS with 2 mM EDTA) titrations were performed and used for background subtraction.

SW620^Gal3+ cells = test: Tumour cell adhesion to laminin; format: cell-based, human; conditions: 10 μM; Galectin-3-expressing SW620^Gal3+ cells
Description: (§2) White wall 96-well plates were coated with laminin (20 μg/ml) in coating buffer (15 mM Na2CO3 17 mM NaHCO3 pH 9.6) overnight at room temperature. ZsGreen- and luciferase-transfected SW620Gal3+, SW620Gal-3, or ACA19+ cells (5×10^5 cells/ml) were pre-incubated without or with 10 μM of the compound of Formula I or the compound of Formula II for 10 minutes before added into laminin-coated plates for 30 min at 37° C. The plates were washed twice with PBS before lysed by PLB for 5 min on a shaker. Luciferase Assay Reagent was then added before luminescence was measured using Tecan Infinite F200 microplate reader.
(§3) Nanty-six well plates were coated with matrix protein laminin (20 μg/ml) in coating buffer overnight. ZsGreen- and luciferase-labelled SW620Gal3− and SW620Gal3+ cells (5×10^5 cells/ml) were mixed without or with 10 μM inhibitors for 15 minutes before introduced to the laminin-coated plates for 30 minutes at 37° C. The plates were washed twice with PBS and the bound cells were lysed by Passive lysis buffer. After addition of Luciferase Assay Reagent (LAR) for 10 minutes, the luminescence intensity in the wells was measured by a microplate reader.

SW620^Gal3− cells = test: Tumour cell adhesion to laminin; format: cell-based, human; conditions: 10 μM; Galectin-3-suppressed SW620^Gal3− cells
Description: as §2, §3

HUVECs = test: Vascular cell tubule formation (angiogenesis); format: cell-based, human; conditions: different concentrations
Description: Vascular cell tubule formation was assessed with HUVECs in the absence or presence of different concentrations of the compounds of Formula I or Formula II.
Matrigel matrix (50 μl) was added to 96-well plates for 60 min at 37° C. to allow gel formation. HUVEC cells (1×10^5 cells/ml in 1:1 EGM/EBM2 media) was introduced to the plates without or with Galectin-3 (2 μg/ml) or different concentrations of compound inhibitors for 24 hr at 37° C. Endothelial cell tube formation was examined with Leica DMLA Laser Microscope. The total number of branching points and the sum of the lengths of tubes were calculated.

H1975 cell = test: Lung cancer cell adhesion to basement matrix; format: cell-based, human; conditions: for IC50: Homo sapiens, NCI-H1975; for H1975 cell adhesion to matrix: different concentrations
Description: (§4) Nanty-six well plates were coated with 50 μl Matrigel (1:30 diluted in PBS) at 37° C. for 1 hour. Cancer cells, pre-labelled with fluorescent die DiI at 37° C. for 20 minutes, were washed twice with PBS and resuspended into 3×10^4 cells/ml in serum-free medium. The matrix-coated 96-well plates were washed twice with PBS before introduction of […] cell suspension with different concentrations of the inhibitors or PBS/DMSO (control) for 1 hour at 37° C. The plates were washed twice with PBS before three randomly selected Field of Views (FOVs) were recorded by fluorescence microscope and number of adhesion cells were quantified by Image J.

MDA-MB-231 cell = test: Triple-negative breast cancer cell adhesion to basement matrix; format: cell-based, human; conditions: for adhesion of control (Con) MDA-MB-231 cells: non-transfected cells (FIG. 15C, 15D); for MDA-MB-231 cell adhesion to matrix: different concentrations (FIG. 15A, 15B)
Description: as §4

[1] = system: galectin-3 knockout (Gal3KO) MDA-MB-231 cells; test: Triple-negative breast cancer cell adhesion to basement matrix, galectin-3 knockout; format: cell-based, human; conditions: galectin-3 knockout by CRISPR/Cas9 (FIG. 15C, 15D)
Description: as §4
(§5) MDAMB-231 or PANC-1 cells were seeded into 6-well plate (2×10^5 cells) and cultured at 37° C. for 24 hour. Galectin-3 CRISPR Cas9 Knockout plasmid (2 μg) and galectin-3 HDR plasmid (2 μg) was mixed with Plasmid Transfection Medium (21 μl) for 5 minutes before addition to a mixture of lipofectamine STEM Transfection Reagent (STEM00001) (1 μl) and Plasmid Transfection Medium (25 μl) for 10 minutes at room temperature. The cells in the 6-well plates were washed and introduced with the Plasmid DNA/Lipofectamine STEM Transfection Reagent complex at 37° C. for 24 hours. […] Successful co-transfection of the CRISPR/Cas9 KO Plasmid and HDR Plasmid was confirmed by expression of red fluorescence protein of the cells. […]

[2] = system: galectin-3 knockout (Gal3KO) PANC1 cells; test: Pancreatic cancer cell adhesion to basement matrix, galectin-3 knockout; format: cell-based, human; conditions: galectin-3 knockout by CRISPR/Cas9 (FIG. 16C, 16D)
Description: as §4, §5

T1 sequence (P17931 whole entry): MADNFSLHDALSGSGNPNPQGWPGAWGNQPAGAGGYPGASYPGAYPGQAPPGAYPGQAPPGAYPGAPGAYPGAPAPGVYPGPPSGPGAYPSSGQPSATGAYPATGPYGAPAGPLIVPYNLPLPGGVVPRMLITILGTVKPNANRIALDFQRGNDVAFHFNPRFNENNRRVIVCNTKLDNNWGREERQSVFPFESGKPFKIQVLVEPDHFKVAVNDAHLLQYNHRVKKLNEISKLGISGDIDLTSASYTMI

| Compound | Kd (Galectin-3) [µM] | binding affinity (Kd) to Galectin-3 (Galectin-3) | adhesion to matrix protein component laminin (SW620^Gal3+ cells) | adhesion to matrix protein component laminin (SW620^Gal3− cells) | HUVEC tubule formation, tubule numbers (HUVECs) | HUVEC tubule formation, vascular tubule length (HUVECs) | IC50 (H1975 cell) [µM] | H1975 cell adhesion to matrix (H1975 cell) | adhesion of control (Con) MDA-MB-231 cells (MDA-MB-231 cell) | MDA-MB-231 cell adhesion to matrix (MDA-MB-231 cell) | adhesion of Gal3KO MDA-MB-231 cells [1] | adhesion of Gal3KO PANC1 cells [2] |
| --- | --- | --- | --- | --- | --- | --- | --- | --- | --- | --- | --- | --- |
| C[C@H]1COc2c(N3CCN(C)CC3)c(F)cc3c(=O)c(C(=O)NNc4cccc(N)c4)cn1c23 [Formula II] | 30 | low μM | significantly inhibits | much reduced effect | dose-dependently inhibition | dose-dependently inhibition | ~10 | dose-dependently inhibits | significant reduction; also recorded: significant inhibition | dose-dependent inhibition | lost their inhibitory effect | lost their inhibitory effect |
| C[C@H]1COc2c(N3CCN(C)CC3)c(F)cc3c(=O)c(C(=O)NNc4ccc(N)cc4)cn1c23 [Formula I] | 18 | low μM | significantly inhibits | much reduced effect | dose-dependently inhibition | dose-dependently inhibition | > 20 | dose-dependently inhibits | significant reduction; also recorded: significant inhibition | dose-dependent inhibition | lost their inhibitory effect | lost their inhibitory effect |
